Test results published in the NIST ThermoML archive (doi:10.1016/j.fluid.2010.01.002).

Experiments:
[1] = 101.33 kPa, Liquid; for viscosity: Capillary tube (Ostwald / Ubbelohde) method; for mass density: Vibrating tube method
[2] = refractive index (Na D-line) (dimensionless); details: 101.33 kPa, Liquid, Standard Abbe refractometry
[3] = mn = molality of the nth substance listed, in mol/kg; details: 101 kPa, Liquid, Vibrating tube method

COS(=O)(=O)[O-].Cn1cc[n+](C)c1 [1,3-dimethylimidazolium methylsulfate]
Details | mass density, [1] [kg/m3] | refractive index, [2] | viscosity, [1] [mPa·s]
298.15 K | 1341.52 | 1.481 | 72.16
308.15 K | 1334.05 | 1.4782 | 54.42
318.15 K | 1324.8 | 1.475 | 31.75
328.15 K | 1320.61 | 1.4732 | 22.75

COS(=O)(=O)[O-].Cn1cc[n+](C)c1 [1,3-dimethylimidazolium methylsulfate] + CC#N
mass density [kg/m3], [3]
Details | 298.15 K | 308.15 K | 318.15 K | 328.15 K
m1 = 0.0154 | 778.02 | 767.2 | 756.08 | 745.07
m1 = 0.0262 | 778.92 | 768.15 | 757.02 | 746.08
m1 = 0.0367 | 779.78 | 769.04 | 757.94 | 746.91
m1 = 0.0442 | 780.39 | 769.64 | 758.56 | 747.53
m1 = 0.0552 | 781.25 | 770.6 | 759.47 | 748.49
m1 = 0.0697 | 782.39 | 771.79 | 760.65 | 749.74
m1 = 0.1092 | 785.54 | 775.06 | 763.89 | 753.13
m1 = 0.1516 | 788.85 | 778.45 | 767.29 | 756.65
m1 = 0.2159 | 793.88 | 783.51 | 772.5 | 761.83
m1 = 0.2981 | 799.99 | 789.92 | 779.03 | 768.5
m1 = 0.4347 | 809.98 | 799.82 | 788.98 | 778.24
m1 = 0.5442 | 817.8 | 807.73 | 797.07 | 786.34
m1 = 0.8609 | 839.07 | 828.64 | 818.22 | 808.33

COS(=O)(=O)[O-].Cn1cc[n+](C)c1 [1,3-dimethylimidazolium methylsulfate] + CN(C)C=O
mass density [kg/m3], [3]
Details | 298.15 K | 308.15 K | 318.15 K | 328.15 K
m1 = 0.0143 | 945.09 | 935.57 | 925.94 | 916.21
m1 = 0.0192 | 945.45 | 935.93 | 926.32 | 916.62
m1 = 0.0305 | 946.29 | 936.8 | 927.22 | 917.63
m1 = 0.0455 | 947.35 | 937.9 | 928.37 | 918.8
m1 = 0.06 | 948.34 | 938.95 | 929.46 | 919.9
m1 = 0.0821 | 949.86 | 940.49 | 930.98 | 921.44
m1 = 0.1125 | 951.98 | 942.64 | 933.15 | 923.55
m1 = 0.1679 | 955.78 | 946.48 | 937.03 | 927.44
m1 = 0.2459 | 961 | 951.8 | 942.42 | 932.69
m1 = 0.3069 | 964.96 | 955.78 | 946.45 | 936.8
m1 = 0.6259 | 984.18 | 975.15 | 965.75 | 956.63

COS(=O)(=O)[O-].Cn1cc[n+](C)c1 [1,3-dimethylimidazolium methylsulfate] + CO
mass density [kg/m3], [3]
Details | 298.15 K | 308.15 K | 318.15 K | 328.15 K
m1 = 0.0108 | 787.65 | 778.14 | 768.55 | 758.82
m1 = 0.0199 | 788.47 | 778.98 | 769.42 | 759.7
m1 = 0.0341 | 789.69 | 780.24 | 770.71 | 761.02
m1 = 0.0419 | 790.3 | 780.9 | 771.38 | 761.68
m1 = 0.0531 | 791.11 | 781.85 | 772.32 | 762.63
m1 = 0.0711 | 792.35 | 783.26 | 773.6 | 764.11
m1 = 0.0929 | 794.09 | 784.9 | 775.34 | 765.65
m1 = 0.1212 | 796.29 | 787.16 | 777.61 | 767.99
m1 = 0.1679 | 799.9 | 790.82 | 781.31 | 771.8
m1 = 0.2084 | 802.98 | 793.97 | 784.46 | 775.01
m1 = 0.2504 | 806.12 | 797.15 | 787.7 | 778.32
m1 = 0.2973 | 809.59 | 800.65 | 791.16 | 781.85
m1 = 0.3949 | 816.69 | 807.86 | 798.36 | 789.21
m1 = 0.4965 | 823.95 | 815.03 | 805.55 | 796.68
m1 = 0.5976 | 831 | 822.1 | 812.65 | 803.73
m1 = 0.7303 | 839.93 | 830.93 | 821.45 | 812.4
m1 = 0.9907 | 856.57 | 847.45 | 838.09 | 828.74

COS(=O)(=O)[O-].Cn1cc[n+](C)c1 [1,3-dimethylimidazolium methylsulfate] + C[S+](C)[O-]
mass density [kg/m3], [3]
Details | 298.15 K | 308.15 K | 318.15 K | 328.15 K
m1 = 0.0129 | 1095.83 | 1085.98 | 1075.96 | 1065.92
m1 = 0.0148 | 1095.95 | 1086.09 | 1076.07 | 1066.03
m1 = 0.0289 | 1096.8 | 1086.89 | 1076.88 | 1066.84
m1 = 0.0374 | 1097.18 | 1087.35 | 1077.34 | 1067.32
m1 = 0.0433 | 1097.5 | 1087.65 | 1077.66 | 1067.64
m1 = 0.0517 | 1097.95 | 1088.1 | 1078.12 | 1068.11
m1 = 0.0632 | 1098.58 | 1088.71 | 1078.72 | 1068.74
m1 = 0.0897 | 1100 | 1090.12 | 1080.15 | 1070.19
m1 = 0.1221 | 1101.67 | 1091.81 | 1081.86 | 1071.93
m1 = 0.1501 | 1103.05 | 1093.21 | 1083.28 | 1073.4
m1 = 0.1878 | 1104.92 | 1095.1 | 1085.22 | 1075.36
m1 = 0.2351 | 1107.24 | 1097.42 | 1087.6 | 1077.78
m1 = 0.2852 | 1109.64 | 1099.85 | 1090.06 | 1080.29
m1 = 0.3822 | 1114 | 1104.38 | 1094.63 | 1084.97
m1 = 0.5216 | 1120.2 | 1110.59 | 1100.91 | 1091.34
m1 = 0.8153 | 1132.05 | 1122.58 | 1113.1 | 1103.75

CC#N [acetonitrile]
Details | mass density, [1] [kg/m3] | refractive index, [2] | viscosity, [1] [mPa·s]
298.15 K | 776.59 | 1.3411 | 0.3431
308.15 K | 765.76 | 1.3365 | 0.3171
318.15 K | 754.67 | 1.3327 | 0.2918
328.15 K | 743.6 | 1.3259 | 0.268

C[S+](C)[O-] [dimethyl sulfoxide]
Details | mass density, [1] [kg/m3] | refractive index, [2] | viscosity, [1] [mPa·s]
298.15 K | 1095.27 | 1.4737 | 1.979
308.15 K | 1085.18 | 1.4701 | 1.622
318.15 K | 1075.24 | 1.4668 | 1.381
328.15 K | 1065.16 | 1.462 | 1.207

CN(C)C=O [dimethylformamide]
Details | mass density, [1] [kg/m3] | refractive index, [2] | viscosity, [1] [mPa·s]
298.15 K | 943.8 | 1.4267 | 0.8605
308.15 K | 934.45 | 1.4225 | 0.7712
318.15 K | 924.75 | 1.418 | 0.6975
328.15 K | 914.9 | 1.4144 | 0.6374

CO [methanol]
Details | mass density, 298.15 K [kg/m3] | mass density, 308.15 K [kg/m3] | mass density, 318.15 K [kg/m3] | mass density, 328.15 K [kg/m3] | refractive index, 298.15 K | refractive index, 308.15 K | refractive index, 318.15 K | refractive index, 328.15 K | viscosity, 318.15 K [mPa·s] | viscosity, 328.15 K [mPa·s]
[1] | 786.53 | 777.09 | 767.48 | 757.75 | – | – | – | – | 0.5962 | 0.4792
[2] | – | – | – | – | 1.3272 | 1.3232 | 1.3185 | 1.3158 | – | –

O [water]
Details | mass density, 328.15 K [kg/m3] | refractive index, 298.15 K | refractive index, 308.15 K | refractive index, 318.15 K | refractive index, 328.15 K | viscosity, 298.15 K [mPa·s] | viscosity, 308.15 K [mPa·s] | viscosity, 318.15 K [mPa·s] | viscosity, 328.15 K [mPa·s]
[1] | 985.62 | – | – | – | – | 0.8949 | 0.7207 | 0.5962 | 0.5042
[2] | – | 1.3325 | 1.3313 | 1.3298 | 1.3282 | – | – | – | –
